Experimental data from PubChem BioAssay (NCI).
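Five compound concentrations were applied to cells in 96-well plates for 48 hours; endpoints were derived by simple linear interpolation of the resulting dose-response curve. Abbreviation: GI50, concentration required for 50% inhibition of growth. At the TGI there is no net growth.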

Legend:
Assay in all cases: inhibition of tumour cell growth, NCI panel, 48 h
786-0 renal = test system: 786-0 renal
A498 renal = test system: A498 renal
A549 NSCLC = test system: A549 NSCLC
ACHN renal = test system: ACHN renal
BT-549 breast = test system: BT-549 breast
CAKI-1 renal = test system: CAKI-1 renal
CCRF-CEM leukemia = test system: CCRF-CEM leukemia
COLO 205 colon = test system: COLO 205 colon
DU-145 prostate = test system: DU-145 prostate
EKVX NSCLC = test system: EKVX NSCLC
HCC-2998 colon = test system: HCC-2998 colon
HCT-116 colon = test system: HCT-116 colon
HCT-15 colon = test system: HCT-15 colon
HL-60(TB) leukemia = test system: HL-60(TB) leukemia
HOP-62 NSCLC = test system: HOP-62 NSCLC
HOP-92 NSCLC = test system: HOP-92 NSCLC
HS 578T breast = test system: HS 578T breast
HT29 colon = test system: HT29 colon
IGROV1 ovarian = test system: IGROV1 ovarian
K-562 leukemia = test system: K-562 leukemia
KM12 colon = test system: KM12 colon
LOX IMVI melanoma = test system: LOX IMVI melanoma
M14 melanoma = test system: M14 melanoma
MALME-3M melanoma = test system: MALME-3M melanoma
MCF7 breast = test system: MCF7 breast
MDA-MB-231 breast = test system: MDA-MB-231 breast
MDA-MB-435 = test system: MDA-MB-435
MOLT-4 leukemia = test system: MOLT-4 leukemia
NCI-H226 lung = test system: NCI-H226 lung
NCI-H23 lung = test system: NCI-H23 lung
NCI-H460 lung = test system: NCI-H460 lung
NCI-H522 lung = test system: NCI-H522 lung
NCI/ADR-RES ovarian = test system: NCI/ADR-RES ovarian
OVCAR-4 ovarian = test system: OVCAR-4 ovarian
OVCAR-5 ovarian = test system: OVCAR-5 ovarian
OVCAR-8 ovarian = test system: OVCAR-8 ovarian
PC-3 prostate = test system: PC-3 prostate
RPMI-8226 leukemia = test system: RPMI-8226 leukemia
RXF 393 renal = test system: RXF 393 renal
SF-268 CNS = test system: SF-268 CNS
SF-295 CNS = test system: SF-295 CNS
SF-539 CNS = test system: SF-539 CNS
SK-MEL-2 melanoma = test system: SK-MEL-2 melanoma
SK-MEL-28 melanoma = test system: SK-MEL-28 melanoma
SK-MEL-5 melanoma = test system: SK-MEL-5 melanoma
SK-OV-3 ovarian = test system: SK-OV-3 ovarian
SN12C renal = test system: SN12C renal
SNB-19 CNS = test system: SNB-19 CNS
SNB-75 CNS = test system: SNB-75 CNS
SR leukemia = test system: SR leukemia
SW-620 colon = test system: SW-620 colon
T-47D breast = test system: T-47D breast
TK-10 renal = test system: TK-10 renal
U251 CNS = test system: U251 CNS
UACC-257 melanoma = test system: UACC-257 melanoma
UACC-62 melanoma = test system: UACC-62 melanoma
UO-31 renal = test system: UO-31 renal

Compound `CC[C@]12C=CCN3CC[C@]4(C(=C(C(=O)OC)C1)Nc1cc5c(cc14)[C@@H]1[C@H](O5)[C@@H](O)[C@@]4(CC)CC(C(=O)OC)=C5Nc6cc(O)ccc6[C@@]56CCN1C46)C32` (stereo partly specified) has a GI50 (786-0 renal) of 68.5 nM, a TGI (786-0 renal) of 4040 nM and a GI50 (A498 renal) of 81.8 nM. For the same compound, the TGI (A498 renal) was 407 nM, the GI50 (A549 NSCLC) was 259 nM and the TGI (A549 NSCLC) was 9990 nM. It also gave a GI50 (ACHN renal) of 153 nM, a TGI (ACHN renal) of 1100 nM and a GI50 (BT-549 breast) of 168 nM. It also gave a TGI (BT-549 breast) of 1300 nM, a GI50 (CAKI-1 renal) of 39.8 nM and a TGI (CAKI-1 renal) of 1590 nM. For the same compound, the GI50 (CCRF-CEM leukemia) was 94 nM, the TGI (CCRF-CEM leukemia) was over 50000 nM and the GI50 (COLO 205 colon) was 119 nM. The TGI (COLO 205 colon) was 619 nM, the GI50 (DU-145 prostate) was 707 nM and the TGI (DU-145 prostate) was over 26400 nM. The GI50 (EKVX NSCLC) was 239 nM, the TGI (EKVX NSCLC) was over 24500 nM and the GI50 (HCC-2998 colon) was 75.2 nM. It also gave a TGI (HCC-2998 colon) of 335 nM, a GI50 (HCT-116 colon) of 72.7 nM and a TGI (HCT-116 colon) of 597 nM. For the same compound, the GI50 (HCT-15 colon) was 92.7 nM, the TGI (HCT-15 colon) was 358 nM and the GI50 (HL-60(TB) leukemia) was 19.8 nM. For the same compound, the TGI (HL-60(TB) leukemia) was 2110 nM, the GI50 (HOP-62 NSCLC) was 136 nM and the TGI (HOP-62 NSCLC) was over 15300 nM. For the same compound, the GI50 (HOP-92 NSCLC) was 15.7 nM, the TGI (HOP-92 NSCLC) was 1050 nM and the GI50 (HS 578T breast) was 172 nM. It also gave a TGI (HS 578T breast) of over 50000 nM, a GI50 (HT29 colon) of 153 nM and a TGI (HT29 colon) of 1830 nM. It also gave a GI50 (IGROV1 ovarian) of 112 nM, a GI50 (K-562 leukemia) of 47.5 nM and a TGI (K-562 leukemia) of over 50000 nM. It also gave a GI50 (KM12 colon) of 256 nM, a TGI (KM12 colon) of 6990 nM and a GI50 (LOX IMVI melanoma) of 59.7 nM. It also gave a TGI (LOX IMVI melanoma) of 135 nM, a GI50 (M14 melanoma) of 109 nM and a TGI (M14 melanoma) of 9550 nM. It also gave a GI50 (MALME-3M melanoma) of 128 nM, a TGI (MALME-3M melanoma) of 9230 nM and a GI50 (MCF7 breast) of 27 nM. The TGI (MCF7 breast) was over 50000 nM, the GI50 (MDA-MB-231 breast) was 94.3 nM and the TGI (MDA-MB-231 breast) was 40200 nM. The GI50 (MDA-MB-435) was 106 nM, the TGI (MDA-MB-435) was 1520 nM and the GI50 (MOLT-4 leukemia) was 134 nM. For the same compound, the TGI (MOLT-4 leukemia) was over 50000 nM, the GI50 (NCI-H226 lung) was 179 nM and the GI50 (NCI-H23 lung) was 165 nM. It also gave a TGI (NCI-H23 lung) of 1650 nM, a GI50 (NCI-H460 lung) of 332 nM and a TGI (NCI-H460 lung) of 8080 nM. For the same compound, the GI50 (NCI-H522 lung) was 61.4 nM, the TGI (NCI-H522 lung) was 324 nM and the GI50 (NCI/ADR-RES ovarian) was 293 nM. For the same compound, the TGI (NCI/ADR-RES ovarian) was over 50000 nM, the GI50 (OVCAR-4 ovarian) was 213 nM and the TGI (OVCAR-4 ovarian) was over 50000 nM. The GI50 (OVCAR-5 ovarian) was 262 nM, the TGI (OVCAR-5 ovarian) was over 22400 nM and the GI50 (OVCAR-8 ovarian) was 166 nM. The TGI (OVCAR-8 ovarian) was over 16000 nM, the GI50 (PC-3 prostate) was 128 nM and the TGI (PC-3 prostate) was 8000 nM. The GI50 (RPMI-8226 leukemia) was 79.8 nM, the TGI (RPMI-8226 leukemia) was 990 nM and the GI50 (RXF 393 renal) was 162 nM. The TGI (RXF 393 renal) was 977 nM, the GI50 (SF-268 CNS) was 352 nM and the TGI (SF-268 CNS) was over 20700 nM. It also gave a GI50 (SF-295 CNS) of 187 nM, a TGI (SF-295 CNS) of 9340 nM and a GI50 (SF-539 CNS) of 181 nM. It also gave a TGI (SF-539 CNS) of 8140 nM, a GI50 (SK-MEL-2 melanoma) of 164 nM and a TGI (SK-MEL-2 melanoma) of 1580 nM. The GI50 (SK-MEL-28 melanoma) was 410 nM, the TGI (SK-MEL-28 melanoma) was 18400 nM and the GI50 (SK-MEL-5 melanoma) was 217 nM. It also gave a TGI (SK-MEL-5 melanoma) of over 15300 nM, a GI50 (SK-OV-3 ovarian) of 172 nM and a TGI (SK-OV-3 ovarian) of 1060 nM. The GI50 (SN12C renal) was 185 nM, the TGI (SN12C renal) was over 9990 nM and the GI50 (SNB-19 CNS) was 210 nM. It also gave a TGI (SNB-19 CNS) of over 25600 nM, a GI50 (SNB-75 CNS) of 369 nM and a TGI (SNB-75 CNS) of over 50000 nM. For the same compound, the GI50 (SR leukemia) was 40.1 nM, the TGI (SR leukemia) was 4280 nM and the GI50 (SW-620 colon) was 167 nM. The TGI (SW-620 colon) was 2270 nM, the GI50 (T-47D breast) was 103 nM and the GI50 (TK-10 renal) was 64.2 nM. For the same compound, the TGI (TK-10 renal) was 645 nM, the GI50 (U251 CNS) was 195 nM and the TGI (U251 CNS) was 2580 nM. The GI50 (UACC-257 melanoma) was 122 nM, the TGI (UACC-257 melanoma) was over 21500 nM and the GI50 (UACC-62 melanoma) was 85.9 nM. For the same compound, the TGI (UACC-62 melanoma) was 40300 nM, the GI50 (UO-31 renal) was 93.3 nM and the TGI (UO-31 renal) was 3070 nM.
